Results on one compound are retold here after patent publication US7307079B2, “1,3,5-Triazine derivatives as ligands for human adenosine-A3 receptors” (Solvay Pharmaceuticals, B.V., priority 2002, dated 2007).

This experiment has as its target T1, human adenosine-A3 receptor (Homo sapiens, UniProt P0DMS8).
T1 construct: expressed in transfected cells; membrane preparations
T1 sequence (P0DMS8 1-318): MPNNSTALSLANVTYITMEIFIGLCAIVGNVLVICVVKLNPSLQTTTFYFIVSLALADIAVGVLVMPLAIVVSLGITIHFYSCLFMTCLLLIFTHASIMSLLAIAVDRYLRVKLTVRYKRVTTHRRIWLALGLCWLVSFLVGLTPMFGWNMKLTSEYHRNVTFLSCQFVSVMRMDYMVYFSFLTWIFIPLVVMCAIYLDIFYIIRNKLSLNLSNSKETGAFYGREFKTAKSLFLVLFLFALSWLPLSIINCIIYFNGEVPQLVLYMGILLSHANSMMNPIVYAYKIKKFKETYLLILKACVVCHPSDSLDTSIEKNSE
Nature of the experiment: Receptor binding to human adenosine-A3 receptors ([125I]-AB-MECA displacement, HEK 293 membranes). As to the method: Receptor Binding to Human Adenosine-A3 Receptors
Affinity of the compounds for human adenosine-A3 receptors was determined using the receptor binding assay described by C. A. Salvatore et al.: Molecular cloning and characterization of the human A3 adenosine receptor, Proc. Natl. Acad. Sci. USA, 90, 10365-10369, 1993. Briefly, membrane preparations were obtained from human recombinant (HEK 293) cells in which the human adenosine-A3 receptor was stably expressed. Membranes were incubated at 22° C. for 90 minutes with [^125l]-AB-MECA in the absence or presence of testcompounds in a concentration range from 10 μM down to 0.1 nM, diluted in a suitable buffer. Separation of bound radioactivity from free was done by filtration through Packard GF/B glass fiber filters with several washings with ice-cold buffer using a Packard cell harvester. Bound radioactivity was measured with a scintillation counter (Topcount, Packard) using a liquid scintillation cocktail (Microscint 0, Packard). Measured radioactivity was plotted against the concentration of the displacing test compound and displacement curves were calculated by four-parameter logistic regression, resulting in IC50 values, i.e. that concentration of displacing compound by which 50% of the radioligand is displaced. […]

Consider `C[C@@H](Nc1nc(Cl)nc(Nc2ccc3c(c2)OCO3)n1)[C@@H](O)c1ccccc1` [formula (9), (1S,2R)-2-{[4-chloro-6-(3,4-methylenedioxy-phenylamino)-[1,3,5]triazin-2-yl]-amino}-1-phenyl-propan-1-ol], for which the Ki ([125I]-AB-MECA, membranes of HEK 293 cells expressing human A3, 22° C., 90 minutes, read-out: affinity for human adenosine-A3 receptors pKi (converted)) is 1 nM. Also, where the note is “binding assay, result stated in words”, the “affinity for human adenosine-A3 receptors (in words)” value was “highly active”.
